The text below walks through data of patent publication US8871205B2, “Methods and compositions for the treatment of immune disorders” (The University of North Carolina at Chapel Hill, priority 2009, dated 2014).

Entries after “also recorded” stand apart in the source; their conditions may differ.

One assay has as its system peritoneal macrophages. In words: TLR agonist-induced cytokine production (ELISA) in peritoneal macrophages pretreated with Rac1 inhibitor. The format is cell-based, mouse. The protocol: Immunoblot analysis of NF-κB and mitogen-activated protein kinase (MAPK) signaling molecules was performed with WT and Plxna4^−/− peritoneal macrophages left untreated (0) or treated for 15, 30 or 60 min with 1 μg/ml ultrapure LPS (FIG. 3A). FIG. 3B and FIG. 3C show chromatin immunoprecipitation (ChIP) assays of the binding of p65 or c-Jun at the promoter regions of Tnfa and Il6 gene in WT and Plxna4^−/− peritoneal macrophages left untreated or treated with 10 μg/ml poly(I:C), 1 μg/ml ultrapure LPS (B), 5 μg/ml Pam3Cys or 4 μg/ml CpG (C) for 1 h. Cells were left untreated (0) or treated for 15 or 30 min with 1 μg/ml ultrapure LPS. Rac1, Cdc42 and RhoA pull-down analysis were performed as described in the Examples section. Total Rac1, Cdc42 and RhoA in cell lysate were used as controls. […] Protein levels of TNF-α and IL-6 were measured by ELISA. The results shown are representative of three independent experiments and are expressed as mean±s.d. * P<0.05 compared to WT peritoneal macrophages without NSC23766 pretreatment.
Total peritoneal cells were harvested from the peritoneal cavities of naïve WT or Plxna4^−/− mice with two 10 ml cold sterile PBS wash. […] The remaining cells were thoroughly washed with PBS and counted in a hemocytometer. Cytospins were prepared and stained with Diff-Quik solutions, and the number of peritoneal macrophages was determined. […]
(§1) Cytokines generated by in vitro cultured peritoneal macrophages were quantified using the ELISA Set for mouse TNF-α or IL-6 (BD Biosciences) and mouse IFN-β ELISA Kit (PBL InterferonSource). For the in vivo experiments, concentrations of TNF-α, IL-1β, IL-6, IL-12p70, CCL2 and CCL3 were measured in cell-free peritoneal lavage fluid, serum, and lung homogenate using a Customized Mouse Cytokine 6-plex Panel (BioLegend) and a Luminex Bio-Plex 200 system (Bio-Rad Laboratories). […]
A general note: ELISA stands for enzyme-linked immunosorbent assay.

The subject of assay [1] is WT or Plxna4−/− peritoneal macrophages. As to the kind of experiment: TNF-α and IL-6 production (RT-PCR, ELISA) in peritoneal macrophages stimulated with Sema3A-Fc or Sema6A-Fc in the absence or presence of LPS. The format is cell-based, mouse. The protocol: Messenger RNA (FIG. 7A) or protein (FIG. 7B) levels of TNF-α and IL-6 were measured by RT-PCR and ELISA, respectively. The IgG Fc fragment (100 μg/ml) was used as a negative control. WT and Plxna4^−/− mice (n=7˜9 per group) were pretreated with either Sema3A-Fc or IgG Fc control proteins at a dosage of 25 μg per kg body weight 1 h prior to CLP procedure (FIG. 7C). Survival rate was monitored for 5 days. τP<0.05 compared with WT mice pretreated with Sema3A-Fc. WT mice (n=4 per group) were pretreated with either Sema3A-Fc or IgG Fc control proteins, followed by CLP surgery (FIG. 7D). Inflammatory cytokines in peritoneal lavage collected 4 h after CLP were determined by ELISA. * P<0.05 compared to peritoneal lavage from WT mice pretreated with Sema3A-Fc (FIG. 7E). […] WT and Plxna4^−/− mice (n=4 per group experiment) were pretreated with either Sema3A-Fc or IgG Fc control proteins at a dosage of 25 ug/kg body weight 1 hour before CLP procedure. Inflammatory cytokines in peritoneal lavage collected 4 h after CLP were determined by ELISA. *P<0.05 compared with peritoneal lavage from WT mice pretreated with Sema3A-Fc (FIG. 7G).
Total peritoneal cells were harvested from the peritoneal cavities of naïve WT or Plxna4^−/− mice with two 10 ml cold sterile PBS wash. Lavage was pooled for mice in the same group. RBCs were lysed in ammonium chloride buffer (150 mM NH4CL, 10 mM NaHCO3, 1 mM EDTA-tetrasodium). The remaining cells were thoroughly washed with PBS and counted in a hemocytometer. Cytospins were prepared and stained with Diff-Quik solutions, and the number of peritoneal macrophages was determined. […]
as §1

The test system of assay [2] is WT and Plxna4−/− mice. In words: Inflammatory cytokines in peritoneal lavage after CLP (ELISA). It counts as in vivo. The note with it: 25 μg/kg 1 h prior to CLP, 4 h after CLP, versus IgG Fc-treated controls. The protocol: (§2) WT and Plxna4^−/− peritoneal macrophages were stimulated with LPS (1 μg/ml) for 4 h in the absence or presence of either Sema3A-Fc or Sema6A-Fc fusion proteins (20 or 100 μg/ml) (FIG. 7A and FIG. 7B). Messenger RNA (FIG. 7A) or protein (FIG. 7B) levels of TNF-α and IL-6 were measured by RT-PCR and ELISA, respectively. The IgG Fc fragment (100 μg/ml) was used as a negative control. WT and Plxna4^−/− mice (n=7˜9 per group) were pretreated with either Sema3A-Fc or IgG Fc control proteins at a dosage of 25 μg per kg body weight 1 h prior to CLP procedure (FIG. 7C). Survival rate was monitored for 5 days. τP<0.05 compared with WT mice pretreated with Sema3A-Fc. […] Inflammatory cytokines in peritoneal lavage collected 4 h after CLP were determined by ELISA. * P<0.05 compared to peritoneal lavage from WT mice pretreated with Sema3A-Fc (FIG. 7E). […] Inflammatory cytokines in peritoneal lavage collected 4 h after CLP were determined by ELISA. *P<0.05 compared with peritoneal lavage from WT mice pretreated with Sema3A-Fc (FIG. 7G).
Cytokines generated by in vitro cultured peritoneal macrophages were quantified using the ELISA Set for mouse TNF-α or IL-6 (BD Biosciences) and mouse IFN-β ELISA Kit (PBL InterferonSource). […]
CLP surgery was performed on mice as previously described with minor modifications (Wen et al., 2008). […] For survival studies, mice subjected to surgery were monitored for 5 days. […]

The subject of assay [3] is WT and Plxna4−/− mice. In words: Survival after experimental sepsis induced by CLP. It counts as in vivo. The note with it: 25 μg/kg 1 h prior to CLP. The protocol: as §2
CLP surgery was performed on mice as previously described with minor modifications (Wen et al., 2008). […] For survival studies, mice subjected to surgery were monitored for 5 days. […] Colonies were counted and expressed as CFU/ml. […]
We next assessed if Sema3A engagement of plexin-A4 could synergistically exacerbate CLP-induced septic inflammation. […]

The target of the next assay is T1, Rac1 (Mus musculus, UniProt P63001).
T1 construct: endogenous in cells; host or cells: primary mouse peritoneal macrophages (WT, Plxna4-/-)
As to the kind of experiment: Detection of GTP-bound Rac1 (pull-down) in macrophages. It counts as cell-based. The protocol:
The assays for GTP-bound Rac1, Cdc42 and RhoA were performed as described (Noren et al., 2000). Briefly, peritoneal macrophages were stimulated with 1 μg/ml LPS for various time periods. Cells were lysed and GTP-bound Rac1 and Cdc42 were affinity precipitated using Rac1/Cdc42-binding domain of PAK (PBD) fused with GST. GTP-bound RhoA was affinity precipitated using RhoA-binding domain of rhotekin (RBD) fused with GST. Bound proteins were resolved on a NuPAGE® (SDS PAGE) gel and were transferred onto nitrocellulose membranes. Membranes were immunoblotted with the appropriate primary antibodies against Rac1, Cdc42 or RhoA.
To assess a converging point for TLR and plexin-A4, we assayed for GTP-bound Rac1.

For the compound `CCN(CC)CCCC(C)Nc1nc(C)cc(Nc2ccc3nc(C)cc(N)c3c2)n1` (stereo not drawn) [NSC23766], the cytokine production entry in the assay on peritoneal macrophages (TLR-activated Plxna4−/− macrophages, NSC23766 pretreatment) was “no inhibitory effect”. Moreover, the IFN-β production entry in the assay with peritoneal macrophages (WT macrophages, Rac1 inhibition) is recorded as “not affected”. The “TNF-α and IL-6 production” value in the assay on peritoneal macrophages (WT peritoneal macrophages, NSC23766 200 μM pretreatment 1 h, various TLR agonists 4 h, ELISA) is on record as “significantly attenuate”.

As to “Sema3A: Recombinant human Sema3A-Fc (1250-S3, R&D); chimeric protein of human IgG1 Fc fragment fused to Sema3A; plexin-A4 ligand”, the “LPS-induced TNF-α and IL-6 production (enhancement in LPS-responsiveness)” value in assay [1] (Plxna4−/− macrophages) was “completely abolished”. Moreover, the “LPS-induced TNF-α and IL-6 production” value in assay [1] (WT peritoneal macrophages, suboptimal LPS, fusion proteins 20 or 100 μg/ml) is on record as “enhanced”. In assay [1] (semaphorin alone, absence of LPS, macrophages), the “TNF-α and IL-6 production” value was “Neither Sema3A nor Sema6A alone induced; also recorded: failed to induce cytokine production”. The “levels of inflammatory cytokines in peritoneal lavage” value with WT and Plxna4−/− mice [2] was “significantly higher levels”. Moreover, in the assay on WT and Plxna4−/− mice [3], the survival rate result is on record as “did not affect”. The “Rac1 activation (GTP-bound Rac1)” value with Rac1 (Myd88−/− macrophages) is “neither Sema3A nor LPS activated; also recorded: attenuated”; in the assay with Rac1 (Plxna4−/− macrophages), “not observed”; in the assay with Rac1 (WT macrophages, LPS and Sema3A together) it was “enhanced this activation”; in the assay with Rac1 (WT macrophages, single stimulus) it was “resulted in Rac1 activation”.
